# Results from PubChem BioAssay AID1963430 (Molecular Pharmacology Branch, DTP, NCI, 2024).
# pIC50: −log10 of the molar value. Where “and” joins values, the source holds several entries; their conditions need not be identical. Equal entries are not always repeated.
# Test system: 521955-158-R2-J5-PDC complex spheroid growth, % test/control
# Experiment: Anticancer human tumor 521955-158-R2-J5-PDC patient-derived pancreatic carcinoma cell line growth inhibition [Asc]
# Conditions: for viability, T/C: stronger effect = lower value
# Description: Multicellular complex tumor spheroid response to apoptosis pathway targeting inhibitors Alrizomadlin, Pelcitoclax, and Dasminapant in combination with a variety of drugs and investigational agents in selected tumor cell lines
# The MDM2 inhibitor alrizomadlin, the Bcl-2/Bcl-xL inhibitor pelcitoclax, and the IAPs inhibitor dasminapant were evaluated both individually and in combination with standard of care and investigational anticancer small molecules within a complex spheroid model of solid tumors. . Complex spheroids include a stromal component modeled by human endothelial cells (HUVEC) and fibroblasts modeled by human mesenchymal stem cells (MSCs). The concentration ranges selected for each drug and investigational agent were based upon clinically achievable concentrations if the clinical Cmax of the agent was known.
# Compounds. The drugs and investigational agents: alrizomadlin (APG-115; NSC831270), pelcitoclax (APG-1252; NSC835773), dasminapant (APG-1387;NSC834197), TAK-243 (NSC785004), copanlisib (NSC809693), olaparib (NSC753686), talazoparib (NSC767125), cobimetinib (NSC 768068), eltanexor (KPT-8602, NSC 794443), abemaciclib (NSC 768073), sotorasib (NSC818433), adagrasib (NSC 831453), MRTX-1133 (NSC 836407), Iadademestat (ORY1001, NSC 806812), and RMC-4630 (NSC839698), were obtained from the NCI Developmental Therapeutics Program Chemical Repository. The FDA-approved anticancer drug set is available from the Developmental Therapeutics Program at https://dtp.cancer.gov/organization/dscb/obtaining/available plates.htm. […] The stock solutions were prepared in dimethyl sulfoxide (DMSO, Sigma-Aldrich, St. Louis, MO, cat. D2650) at 800-fold the tested concentration and stored at -70 degrees C prior to their use. All drugs and investigational agents were tested over a range starting from a high concentration at or near the clinical Cmax and decreasing in half-log increments. If the clinical Cmax for an agent had not been determined, the highest concentration tested was 10 microM.
# The patient-derived cancer (PDC) cell lines include five colon adenocarcinomas: 186277-243-T-J2-PDC, 616215-338-R-J1-PDC, 439559-082-T-J2-PDC, 463943-066-T-J2-PDC, and 519858-162-T-J1-PDC; three pancreatic carcinomas: 323965-272-R-J2-PDC, 521955-158-R6-J3-PDC, and 521955-158-R2-J5-PDC; two uterine sarcomas: 327498-152-R-J2-PDC and 993429-296-R-J1-PDC; two rhabdomyosarcomas: 755483-174-R-J1-PDC and 772245-204-R-J1-PDC; two soft tissue sarcomas: 126254-015-R-J1-PDC and 494315-158-R-J1-PDC; two malignant fibrous histiocytomas: 317291-083-R-J1-PDC and 596521-263-R-J1-PDC; two breast carcinomas: 171881-019-R-J1-PDC and 885512-296-R-J2-PDC; and one ovarian carcinoma: 6556581-035-R-J-PDC were obtained from the NCI PDMR, (https://pdmr.cancer.gov). The established cell lines HSSY-2 synovial sarcoma (RRID:CVCL 8719), SYO-1 synovial sarcoma (RRID:CVCL_7146), MPNST malignant peripheral neural sheath tumor were obtained from the Sloan Kettering Institute. The following established cell lines were purchased from the American Type Culture Collection (ATCC, Manassas, VA), Sor the received from the NCI repository:, PANC-1 pancreatic carcinoma (CRL-1469, RRID:CVCL_0480), OVCAR-5 ovarian carcinoma (RRID:CVCL_1628), OVCAR-8 ovarian carcinoma (RRID:CVCL_1629), , MCF-7 breast carcinoma (CRL-12584, RRID:CVCL_0031), MDA-MB-231 breast carcinoma (CRL-12532, RRID:CVCL_0062), NCI-H1876 small cell lung carcinoma (CRL-5902, RRID:CVCL_1503), NCI-H510A small cell lung carcinoma (HTB-184, RRID:CVCL_1565), NCI-H1417 (CRL-5869, RRID:CVCL_1469), and NCI-H196 small cell lung carcinoma (CRL-5823, RRID:CVCL_1509). Dr. Peter Houghton (Greehey Children's Cancer Research Institute, University of Texas Health Science Center, San Antonio, TX) provided Rh-18 rhabdomyosarcoma (RRID:CVCL_1659). Pooled donor human umbilical vein endothelial cells (HUVEC, Lonza, cat. CC-2519) and human mesenchymal stem cells (hMSC, Lonza, cat. PT-2501) were purchased from Lonza (Walkersville, MD).
# Cell Culture. […]
# 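Note: spheroids exposed to agents for 7 days before readout.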
# 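Throughout, for viability, T/C: 100% = DMSO vehicle control viability.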
structure (smiles),measurement,setting,value
C#Cc1c(F)ccc2cc(O)cc(-c3ncc4c(N5CC6CCC(C5)N6)nc(OCC56CCCN5CC(F)C6)nc4c3F)c12 (configuration not stated),"viability, T/C",compound 0.0316 µM,23.2% and 40.7% and 50.5%
same,"viability, T/C",compound 0.1 µM,28.2% and 48.4% and 47.1%
same,"viability, T/C",compound 0.316 µM,22.3% and 37.1% and 31.9%
same,"viability, T/C",compound 1 µM,20.6% and 36.3% and 36.4%
same,"viability, T/C",compound 3.16 µM,24.6% and 37.5% and 33.1%
same,"viability, T/C",compound 10 µM,21.9% and 34.4% and 44.3%
same,pIC50,curve of compound,> 7.50 and 7.44
CNC(C)C(=O)NC1CN(S(=O)(=O)c2cccc(S(=O)(=O)N3CCC4CCC(C(=O)NC(c5ccccc5)c5ccccc5)N4C(=O)C(NC(=O)C(C)NC)C3)c2)CCC2CCC(C(=O)NC(c3ccccc3)c3ccccc3)N2C1=O (configuration not stated) + CCN1C(C(=O)NC23CCC(C(=O)O)(CC2)CC3)C(c2cccc(Cl)c2F)C2(C(=O)Nc3cc(Cl)ccc32)C12CCCCC2,pIC50,"curve of first compound, second compound 0.03 µM",< 6.00
same,pIC50,"curve of first compound, second compound 0.0949 µM",< 6.00
same,pIC50,"curve of first compound, second compound 0.3 µM",< 6.00
same,pIC50,"curve of first compound, second compound 0.949 µM",< 6.00
same,pIC50,"curve of first compound, second compound 3 µM",< 6.00
same,"viability, T/C","second compound 0.03 µM, first compound 0.00316 µM",141%
same,"viability, T/C","second compound 0.03 µM, first compound 0.01 µM",76.6%
same,"viability, T/C","second compound 0.03 µM, first compound 0.0316 µM",86.4%
same,"viability, T/C","second compound 0.03 µM, first compound 0.1 µM",65.2%
same,"viability, T/C","second compound 0.03 µM, first compound 0.316 µM",66%
same,"viability, T/C","second compound 0.03 µM, first compound 1 µM",76%
same,"viability, T/C","second compound 0.0949 µM, first compound 0.00316 µM",111%
same,"viability, T/C","second compound 0.0949 µM, first compound 0.01 µM",95.8%
same,"viability, T/C","second compound 0.0949 µM, first compound 0.0316 µM",90.7%
same,"viability, T/C","second compound 0.0949 µM, first compound 0.1 µM",101%
same,"viability, T/C","second compound 0.0949 µM, first compound 0.316 µM",105%
same,"viability, T/C","second compound 0.0949 µM, first compound 1 µM",115%
same,"viability, T/C","second compound 0.3 µM, first compound 0.00316 µM",120%
same,"viability, T/C","second compound 0.3 µM, first compound 0.01 µM",133%
same,"viability, T/C","second compound 0.3 µM, first compound 0.0316 µM",84.3%
same,"viability, T/C","second compound 0.3 µM, first compound 0.1 µM",97.6%
same,"viability, T/C","second compound 0.3 µM, first compound 0.316 µM",94%
same,"viability, T/C","second compound 0.3 µM, first compound 1 µM",102%
same,"viability, T/C","second compound 0.949 µM, first compound 0.00316 µM",87.8%
same,"viability, T/C","second compound 0.949 µM, first compound 0.01 µM",102%
same,"viability, T/C","second compound 0.949 µM, first compound 0.0316 µM",158%
same,"viability, T/C","second compound 0.949 µM, first compound 0.1 µM",116%
same,"viability, T/C","second compound 0.949 µM, first compound 0.316 µM",84.2%
same,"viability, T/C","second compound 0.949 µM, first compound 1 µM",106%
same,"viability, T/C","second compound 3 µM, first compound 0.00316 µM",166%
same,"viability, T/C","second compound 3 µM, first compound 0.01 µM",102%
same,"viability, T/C","second compound 3 µM, first compound 0.0316 µM",141%
same,"viability, T/C","second compound 3 µM, first compound 0.1 µM",120%
same,"viability, T/C","second compound 3 µM, first compound 0.316 µM",151%
same,"viability, T/C","second compound 3 µM, first compound 1 µM",123%
C=C(F)C(=O)N1CCN(c2nc(OCC3CCCN3C)nc3c2CCN(c2cccc4cccc(Cl)c24)C3)CC1CC#N (configuration not stated) + CNC(C)C(=O)NC1CN(S(=O)(=O)c2cccc(S(=O)(=O)N3CCC4CCC(C(=O)NC(c5ccccc5)c5ccccc5)N4C(=O)C(NC(=O)C(C)NC)C3)c2)CCC2CCC(C(=O)NC(c3ccccc3)c3ccccc3)N2C1=O,pIC50,"curve of first compound, second compound 0.01 µM",5.27
same,pIC50,"curve of first compound, second compound 0.0316 µM",5.27
same,pIC50,"curve of first compound, second compound 0.1 µM",5.24
same,pIC50,"curve of first compound, second compound 0.316 µM",5.25
same,pIC50,"curve of first compound, second compound 1 µM",5.26
same,"viability, T/C","second compound 0.01 µM, first compound 0.0316 µM",87.1%
same,"viability, T/C","second compound 0.01 µM, first compound 0.1 µM",93.1%
same,"viability, T/C","second compound 0.01 µM, first compound 0.316 µM",100%
same,"viability, T/C","second compound 0.01 µM, first compound 1 µM",98.4%
same,"viability, T/C","second compound 0.01 µM, first compound 3.16 µM",92.6%
same,"viability, T/C","second compound 0.01 µM, first compound 10 µM",0.23%
same,"viability, T/C","second compound 0.0316 µM, first compound 0.0316 µM",100%
same,"viability, T/C","second compound 0.0316 µM, first compound 0.1 µM",95.6%
same,"viability, T/C","second compound 0.0316 µM, first compound 0.316 µM",81.3%
same,"viability, T/C","second compound 0.0316 µM, first compound 1 µM",90.6%
same,"viability, T/C","second compound 0.0316 µM, first compound 3.16 µM",99.7%
same,"viability, T/C","second compound 0.0316 µM, first compound 10 µM",0.23%
same,"viability, T/C","second compound 0.1 µM, first compound 0.0316 µM",111%
same,"viability, T/C","second compound 0.1 µM, first compound 0.1 µM",106%
same,"viability, T/C","second compound 0.1 µM, first compound 0.316 µM",79.8%
same,"viability, T/C","second compound 0.1 µM, first compound 1 µM",93.4%
same,"viability, T/C","second compound 0.1 µM, first compound 3.16 µM",98.2%
same,"viability, T/C","second compound 0.1 µM, first compound 10 µM",5.12%
same,"viability, T/C","second compound 0.316 µM, first compound 0.0316 µM",119%
same,"viability, T/C","second compound 0.316 µM, first compound 0.1 µM",103%
same,"viability, T/C","second compound 0.316 µM, first compound 0.316 µM",84%
same,"viability, T/C","second compound 0.316 µM, first compound 1 µM",91.1%
same,"viability, T/C","second compound 0.316 µM, first compound 3.16 µM",99%
same,"viability, T/C","second compound 0.316 µM, first compound 10 µM",0.31%
same,"viability, T/C","second compound 1 µM, first compound 0.0316 µM",85.9%
same,"viability, T/C","second compound 1 µM, first compound 0.1 µM",102%
same,"viability, T/C","second compound 1 µM, first compound 0.316 µM",92%
same,"viability, T/C","second compound 1 µM, first compound 1 µM",94.7%
same,"viability, T/C","second compound 1 µM, first compound 3.16 µM",93%
same,"viability, T/C","second compound 1 µM, first compound 10 µM",1.89%
